≈ marks a conversion by molar mass, not a printed value.
Experiments:
Assay type in all cases: cell-based
[1] = test system: H460; assay: In vitro cell growth inhibition test, MTT assay; settings: MTT assay 4 days after compound addition
Description: [The source words this procedure for another cell line and reports this cell line under the same test.] (§1) Test Example 2 In vitro cell growth inhibition test Cells and MTT assay
(§2) Human squamous lung cancer […], human squamous lung cancer Ma44, human lung adenocarcinoma A549, human colon cancer HT29 and human pancreas cancer PANC-1 were used.

[2] = test system: human lung adenocarcinoma A549; assay: In vitro cell growth inhibition test, MTT assay; settings: MTT assay 4 days after compound addition
Description: as §1, §2

[3] = test system: human pancreas cancer PANC-1; assay: In vitro cell growth inhibition test, MTT assay; settings: MTT assay 4 days after compound addition
Description: as §1, §2

[4] = test system: human squamous lung cancer RERF-RC-AI; assay: In vitro cell growth inhibition test, MTT assay; settings: MTT assay 4 days after compound addition
Description: as §1, §2

[5] = test system: human squamous lung cancer Ma44; assay: In vitro cell growth inhibition test, MTT assay; settings: MTT assay 4 days after compound addition
Description: as §1, §2

[6] = test system: human colon cancer HT29; assay: In vitro cell growth inhibition test, MTT assay; settings: MTT assay 4 days after compound addition
Description: as §1, §2

[7] = test system: DT-C cells (pGV-P transfected v-ki-ras-transformed NIH373 cells); assay: Luciferase activity of DT-C control cells (IC50-C), index of non-specific transcription-inhibitory effect or cytotoxicity; settings: tested concentration nearest to 50% inhibition in DT-C cells
Description: (§3) Test Example 1 Inhibitory effect against cellular signaling derived from Ras oncogene products
(§4) Based on the reporter plasmid (pGV-P (Toyo Ink, Japan)), in which luciferase gene was ligated to SV40-derived minimal promoter, we constructed a plasmid designated pRRE3-luc by inserting 3 copies of chemically synthesized oligonucleotides (Sequence: CAGGATATGACTCT, derived from mouse NVL-3 (M. A. Reddy et al.(1992)Mol. Endocrinol., 6, 1051)) into upstream of the promoter. v-ki-ras-transformed NIH373 cells (DT cells, provided by Dr. Makoto Noda (Kyoto Univ., School of medicine)) were transfected with this plasmid by liposome-mediated transfection and transfected cell lines stably incorporated and maintained each plasmid were obtained. We named pGV-P and pRRE3-transfected cell line as DT-C and DT-R, respectively and used in the assay described below.
(§5) i) All the cell lines were cultured in Dulbecco's Modified Essential Medium (DMEM: 10% Fetal Calf Serum(FCS: Hyclone, USA)) including […] kanamycin (Meiji Seika, Japan) in humidified incubator under condition of 5% CO2 at 37° C.
(§6) ii) DT-C and DT-R cells were seeded at 2500 cells/well into flat-bottom 96 well multiplate (Sumitomo bakelite) and incubated for 24 hours.
(§7) iii) Test compounds were prepared as 1 mg/ml DMSO solution.
(§8) iv) The solution of test compounds were added to the culture. Tested compounds are used at the concentration from […] to 0.51 ng/ml with 3-fold dilution.
(§9) v) After 24 hours, the culture supernatant was completely aspirated and 20 μl of cell-lysing solution (PGC-50 (Toyo Ink, Japan)) was added before cells were dried up. In order to lyse the cells completely, multiwell plates were left at room temperature for 10 to 30 min. The plates were wrapped up and stored at −20° C. till the day of measurement.
(§10) i) Melt the samples by putting 96 well multiplate at 37° C. and add 90 μl/well 25 mM Tris (pH 7.5).
(§11) ii) Transfer 50 μl of the sample (110 μl) to the 96 well microplate (Microlite 1 (Dynatech)) for measurement.
(§12) iii) Measure the samples by the luminometer, LUMINOUS CT9000D (Dia-Yatron, Japan). We used Pickagene luminescence kit PGL2000 or LT2.0 (Toyo Ink, Japan) as enzyme substrates for luminescence measurement (50 μl/well).
(§13) i) The luciferase activity of DT-C cells and DT-R cells were plotted in the graph where the relative activity and the compound concentration were expressed as Y-axis and X-axis, respectively. We judged by the degree of dissociation between the activities of DT-C cells and DT-R cells as an index.
b) Among the points of concentration tested, the concentration which is the nearest to 50% inhibition concentration at DT-C cells (IC50-C), was shown as an index of non-specific transcription-inhibitory effect or of cytotoxicity. In case of positive compounds, 50% inhibition concentration in DT-C cells which was higher than the active concentration was expressed as IC50-C.

[8] = test system: signal derived from Ras oncogene products (DT-R cells, pRRE3-luc transfected v-ki-ras-transformed NIH373 cells); assay: Inhibitory effect against cellular signaling derived from Ras oncogene products: RRE-luciferase reporter, Minimal Active Concentration (MAC) at which DT-C and DT-R activities dissociate; settings: minimal concentration at which luciferase activities of DT-C and DT-R cells dissociated
Description: as §3, §4, §5, §6, §7, §8, §9, §10, §11, §12, §13
ii) Concretely, efficacy of the compound was expressed by two values described below.
a) Among the points of concentration tested, the minimal concentration (Minimal Active Concentration: MAC), at which the activities of DT-C cells and DT-R cells dissociated, was shown as an index of efficacy of the compound.

SMILES | IC50 H460 [1] | IC50 A549 [2] | IC50 PANC-1 [3] | IC50 RERF-LC-AI [4] | IC50 Ma44 [5] | IC50 HT-29 [6] | IC50 (IC50-C) [7] | MAC (Minimal Active Concentration) [8]
CCCSC(=Nc1nc(C)ncc1CSc1nnc(-c2ccc(N)cc2)o1)NC [Compound A-15] | 0.0153 µg/mL (≈ 0.0356 µM) | 0.0111 µg/mL (≈ 0.0258 µM) | 0.0124 µg/mL (≈ 0.0289 µM) | 0.0065 µg/mL (≈ 0.0151 µM) | 0.0127 µg/mL (≈ 0.0296 µM) | 0.0103 µg/mL (≈ 0.024 µM) | >10 µg/mL | 0.00152 µg/mL
CCCNC(=Nc1nc(C)ncc1CSc1nnc(-c2ccc([N+](=O)[O-])cc2)o1)NN(C)C [Compound A-18] | 0.0275 µg/mL (≈ 0.0583 µM) | 0.0514 µg/mL (≈ 0.109 µM) | 0.0004 µg/mL (≈ 0.000848 µM) | 0.0004 µg/mL (≈ 0.000848 µM) | 0.0004 µg/mL (≈ 0.000848 µM) | 0.0004 µg/mL (≈ 0.000848 µM) | >10 µg/mL | 0.00457 µg/mL
CCCNC(=Nc1nc(C)ncc1CSc1nnc(-c2ccc(C)cc2)o1)SC [Compound A-17] | 0.015 µg/mL (≈ 0.035 µM) | 0.0174 µg/mL (≈ 0.0406 µM) | 0.0107 µg/mL (≈ 0.025 µM) | 0.0132 µg/mL (≈ 0.0308 µM) | 0.0241 µg/mL (≈ 0.0562 µM) | 0.015 µg/mL (≈ 0.035 µM) | >10 µg/mL | 0.0412 µg/mL

From patent publication US6800630B2, “Pyrimidine derivatives having antitumor effect” (Shionogi & Co., Ltd., priority 2000, dated 2004)
